Legend:
Experiment in all cases: relative viability (nuclei count vs DMSO), 5 days (fraction); higher = more cells survive
NCI-H1755 = system: NCI-H1755
Outline: (§1)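 Each reported value is a median over duplicate plates. It expresses relative viability: treated-well nuclei count divided by vehicle-well nuclei count. Lung cancer cell lines in 1536-well plates were dosed by pin tool a day after seeding, alone with one drug or with a fixed anchor-drug dose plus five library-drug doses (not always all listed) in √10 steps, and nuclei were counted after 5 days.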

COR-L23 = system: COR-L23
Outline: as §1

SK-LU-1 = system: SK-LU-1
Outline: as §1

NCI-H322M = system: NCI-H322M
Outline: as §1

NCI-H1651 = system: NCI-H1651
Outline: as §1

NCI-H460 = system: NCI-H460
Outline: as §1

NCI-H522 = system: NCI-H522
Outline: as §1

NCI-H1793 = system: NCI-H1793
Outline: as §1

NCI-H358 = system: NCI-H358
Outline: as §1

NCI-H3122 = system: NCI-H3122
Outline: as §1

NCI-H2087 = system: NCI-H2087
Outline: as §1

NCI-H596 = system: NCI-H596
Outline: as §1

201T = system: 201T
Outline: as §1

NCI-H1650 = system: NCI-H1650
Outline: as §1

NCI-H23 = system: NCI-H23
Outline: as §1

NCI-H2085 = system: NCI-H2085
Outline: as §1

HCC-78 = system: HCC-78
Outline: as §1

LU99A = system: LU99A
Outline: as §1

H3255 = system: H3255
Outline: as §1

HARA = system: HARA
Outline: as §1

PC-3 [JPC-3] = system: PC-3 [JPC-3]
Outline: as §1

NCI-H650 = system: NCI-H650
Outline: as §1

HCC-366 = system: HCC-366
Outline: as §1

CN1CCN(CCOc2cc(OC3CCOCC3)c3c(Nc4c(Cl)ccc5c4OCO5)ncnc3c2)CC1 [Saracatinib] + O=C(CCCCCCC(=O)Nc1ccccc1)NO [Vorinostat] (partner 1 µM)
relative viability (NCI-H1755; first compound 0.02 µM): 0.687 | relative viability (NCI-H1755; first compound 0.2 µM): 0.539 | relative viability (NCI-H1755; first compound 0.6325 µM): 0.861 | relative viability (NCI-H1755; first compound 2 µM): 0.707 | relative viability (COR-L23; first compound 0.02 µM): 0.361 | relative viability (COR-L23; first compound 0.2 µM): 0.41 | relative viability (COR-L23; first compound 0.6325 µM): 0.469 | relative viability (COR-L23; first compound 2 µM): 0.406 | relative viability (SK-LU-1; first compound 0.02 µM): 0.758 | relative viability (SK-LU-1; first compound 0.2 µM): 0.657 | relative viability (SK-LU-1; first compound 0.6325 µM): 0.657 | relative viability (SK-LU-1; first compound 2 µM): 0.509 | relative viability (NCI-H322M; first compound 0.02 µM): 0.73 | relative viability (NCI-H322M; first compound 0.2 µM): 0.744 | relative viability (NCI-H322M; first compound 0.6325 µM): 0.702 | relative viability (NCI-H322M; first compound 2 µM): 0.37 | relative viability (NCI-H1651; first compound 0.02 µM): 0.598 | relative viability (NCI-H1651; first compound 0.2 µM): 0.547 | relative viability (NCI-H1651; first compound 0.6325 µM): 0.598 | relative viability (NCI-H1651; first compound 2 µM): 0.554 | relative viability (NCI-H460; first compound 0.02 µM): 0.735 | relative viability (NCI-H460; first compound 0.2 µM): 0.591 | relative viability (NCI-H460; first compound 0.6325 µM): 0.677 | relative viability (NCI-H460; first compound 2 µM): 0.604 | relative viability (NCI-H522; first compound 0.02 µM): 0.856 | relative viability (NCI-H522; first compound 0.2 µM): 0.658 | relative viability (NCI-H522; first compound 0.6325 µM): 0.897 | relative viability (NCI-H522; first compound 2 µM): 0.778 | relative viability (NCI-H1793; first compound 0.02 µM): 0.878 | relative viability (NCI-H1793; first compound 0.2 µM): 0.482 | relative viability (NCI-H1793; first compound 0.6325 µM): 0.842 | relative viability (NCI-H1793; first compound 2 µM): 0.601 | relative viability (NCI-H358; first compound 0.02 µM): 0.645 | relative viability (NCI-H358; first compound 0.2 µM): 0.442 | relative viability (NCI-H358; first compound 0.6325 µM): 0.526 | relative viability (NCI-H358; first compound 2 µM): 0.255 | relative viability (NCI-H3122; first compound 0.02 µM): 0.984 | relative viability (NCI-H3122; first compound 0.2 µM): 0.553 | relative viability (NCI-H3122; first compound 0.6325 µM): 0.891 | relative viability (NCI-H3122; first compound 2 µM): 0.788 | relative viability (NCI-H2087; first compound 0.02 µM): 0.696 | relative viability (NCI-H2087; first compound 0.2 µM): 0.564 | relative viability (NCI-H2087; first compound 0.6325 µM): 0.54 | relative viability (NCI-H2087; first compound 2 µM): 0.95 | relative viability (NCI-H596; first compound 0.02 µM): 0.568 | relative viability (NCI-H596; first compound 0.2 µM): 0.511 | relative viability (NCI-H596; first compound 0.6325 µM): 0.585 | relative viability (NCI-H596; first compound 2 µM): 0.406 | relative viability (201T; first compound 0.02 µM): 0.971 | relative viability (201T; first compound 0.2 µM): 0.868 | relative viability (201T; first compound 0.6325 µM): 0.799 | relative viability (201T; first compound 2 µM): 0.658 | relative viability (NCI-H1650; first compound 0.02 µM): 0.654 | relative viability (NCI-H1650; first compound 0.2 µM): 0.377 | relative viability (NCI-H1650; first compound 0.6325 µM): 0.548 | relative viability (NCI-H1650; first compound 2 µM): 0.492 | relative viability (NCI-H23; first compound 0.02 µM): 0.539 | relative viability (NCI-H23; first compound 0.6325 µM): 0.658 | relative viability (NCI-H23; first compound 2 µM): 0.442 | relative viability (NCI-H2085; first compound 0.02 µM): 0.816 | relative viability (NCI-H2085; first compound 0.2 µM): 0.694 | relative viability (NCI-H2085; first compound 0.6325 µM): 0.896 | relative viability (NCI-H2085; first compound 2 µM): 0.815 | relative viability (HCC-78; first compound 0.02 µM): 0.459 | relative viability (HCC-78; first compound 0.6325 µM): 0.476 | relative viability (HCC-78; first compound 2 µM): 0.427 | relative viability (LU99A; first compound 0.02 µM): 0.445 | relative viability (LU99A; first compound 0.2 µM): 0.339 | relative viability (LU99A; first compound 0.6325 µM): 0.418 | relative viability (LU99A; first compound 2 µM): 0.404 | relative viability (H3255; first compound 0.02 µM): 0.79 | relative viability (H3255; first compound 0.2 µM): 0.684 | relative viability (H3255; first compound 0.6325 µM): 0.965 | relative viability (H3255; first compound 2 µM): 0.337 | relative viability (HARA; first compound 0.02 µM): 0.505 | relative viability (HARA; first compound 0.2 µM): 0.654 | relative viability (HARA; first compound 0.6325 µM): 0.62 | relative viability (HARA; first compound 2 µM): 0.572 | relative viability (PC-3 [JPC-3]; first compound 0.02 µM): 0.819 | relative viability (PC-3 [JPC-3]; first compound 0.2 µM): 0.47 | relative viability (PC-3 [JPC-3]; first compound 0.6325 µM): 0.529 | relative viability (PC-3 [JPC-3]; first compound 2 µM): 0.477 | relative viability (NCI-H650; first compound 0.02 µM): 0.5 | relative viability (NCI-H650; first compound 0.2 µM): 0.365 | relative viability (NCI-H650; first compound 0.6325 µM): 0.384 | relative viability (NCI-H650; first compound 2 µM): 0.857 | relative viability (HCC-366; first compound 0.02 µM): 0.4 | relative viability (HCC-366; first compound 0.2 µM): 0.135 | relative viability (HCC-366; first compound 0.6325 µM): 0.399 | relative viability (HCC-366; first compound 2 µM): 0.221
